These are literature values, as cited in US8492366B2, “Enhancedly-solubilized beta-hydroxy acids and higher potency skin peels formulated therefrom” (Societe L'Oreal S.A., priority 2002, dated 2013).

As to `O=C(O)c1ccccc1O` [salicylic acid, 2-hydroxybenzoic acid], the “maximum solubility in alcohol” value is recorded as approximately 29%.
